Reference: the supplement of paper PMC10307832

Columns and labels:
Test in all cases: relative viability (nuclei count vs DMSO), 5 days (fraction); higher = more cells survive
Carboplatin + Navitoclax = compound: C1CC(C1)(C(=O)O)C(=O)O.[NH2-].[NH2-].[Pt+2] [Carboplatin] + CC1(C)CCC(c2ccc(Cl)cc2)=C(CN2CCN(c3ccc(C(=O)NS(=O)(=O)c4ccc(N[C@H](CCN5CCOCC5)CSc5ccccc5)c(S(=O)(=O)C(F)(F)F)c4)cc3)CC2)C1 [Navitoclax] (partner 0.5 µM)
Summary of the method: (§1)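 Lung cancer cell lines were pin-tool dosed in 1536-well plates on the day after seeding, with either a lone drug or a fixed anchor-drug dose plus five library-drug doses (not always all listed) in √10 steps. Nuclei were counted on 4× images after 5 days. Relative viability is the ratio of treated-well to vehicle-well nuclei counts, with each value a median of duplicate plates.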

Carboplatin + AZD7762 = compound: C1CC(C1)(C(=O)O)C(=O)O.[NH2-].[NH2-].[Pt+2] [Carboplatin] + NC(=O)Nc1cc(-c2cccc(F)c2)sc1C(=O)N[C@H]1CCCNC1 [AZD7762] (partner 0.2 µM)
Summary of the method: as §1

GSK126 + Palbociclib = compound: CC[C@H](C)N1C=C(C2=C(C=C(C=C21)C3=CN=C(C=C3)N4CCNCC4)C(=O)NCC5=C(C=C(NC5=O)C)C)C [GSK126] + CC(=O)c1c(C)c2cnc(Nc3ccc(N4CCNCC4)cn3)nc2n(C2CCCC2)c1=O [Palbociclib] (partner 0.5 µM)
Summary of the method: as §1

MLN4924 + Palbociclib = compound: NS(=O)(=O)OC[C@@H]1C[C@@H](n2ccc3c(N[C@H]4CCc5ccccc54)ncnc32)C[C@@H]1O [MLN4924] + CC(=O)c1c(C)c2cnc(Nc3ccc(N4CCNCC4)cn3)nc2n(C2CCCC2)c1=O [Palbociclib] (partner 0.5 µM)
Summary of the method: as §1

Cell Line | relative viability (Carboplatin + Navitoclax; first compound 0.08 µM) | relative viability (Carboplatin + Navitoclax; first compound 0.253 µM) | relative viability (Carboplatin + Navitoclax; first compound 0.8 µM) | relative viability (Carboplatin + Navitoclax; first compound 2.53 µM) | relative viability (Carboplatin + Navitoclax; first compound 8 µM) | relative viability (Carboplatin + AZD7762; first compound 0.08 µM) | relative viability (Carboplatin + AZD7762; first compound 0.253 µM) | relative viability (Carboplatin + AZD7762; first compound 0.8 µM) | relative viability (Carboplatin + AZD7762; first compound 2.53 µM) | relative viability (Carboplatin + AZD7762; first compound 8 µM) | relative viability (GSK126 + Palbociclib; first compound 0.08 µM) | relative viability (GSK126 + Palbociclib; first compound 0.253 µM) | relative viability (GSK126 + Palbociclib; first compound 0.8 µM) | relative viability (GSK126 + Palbociclib; first compound 2.53 µM) | relative viability (GSK126 + Palbociclib; first compound 8 µM) | relative viability (MLN4924 + Palbociclib; first compound 0.04 µM) | relative viability (MLN4924 + Palbociclib; first compound 0.1265 µM) | relative viability (MLN4924 + Palbociclib; first compound 0.4 µM) | relative viability (MLN4924 + Palbociclib; first compound 1.265 µM) | relative viability (MLN4924 + Palbociclib; first compound 4 µM)
LXF-289 | 0.933 | 0.982 | 0.932 | 0.903 | 0.927 | 1.17 | 1.16 | 1.07 | 1.06 | 1.03 | 0.586 | 0.625 | 0.588 | 0.602 | 0.629 | 0.568 | 0.458 | 0.472 | 0.194 | 0.112
EMC-BAC-2 | 1.24 | 1.11 | 1.16 | 1.12 | 1.02 | 1.15 | 0.993 | 1.11 | 1.07 | 0.973 | 0.519 | 0.515 | 0.516 | 0.503 | 0.499 | 0.559 | 0.431 | 0.386 | 0.265 | 0.312
LC-2-ad | 0.37 | 0.49 | 0.422 | 0.436 | 0.326 | 0.922 | 0.829 | 0.854 | 0.851 | 0.78 | 0.497 | 0.489 | 0.479 | 0.481 | 0.478 | 0.443 | 0.427 | 0.432 | 0.233 | 0.196
NCI-H647 | 1.18 | 1.17 | 1.08 | 1.09 | 0.784 | 0.604 | 0.474 | 0.444 | 0.476 | 0.303 | 0.482 | 0.366 | 0.363 | 0.382 | 0.5 | 0.22 | 0.264 | 0.0524 | 0.029 | 0.0424
NCI-H1734 | 0.873 | 0.905 | 0.873 | 0.729 | 0.676 | 0.575 | 0.558 | 0.558 | 0.46 | 0.419 | 0.384 | 0.348 | 0.342 | 0.375 | 0.333 | 0.372 | 0.341 | 0.272 | 0.14 | 0.146
LOU-NH91 | 0.831 | 0.642 | 0.667 | 0.706 | 0.624 | 0.824 | 0.761 | 0.751 | 0.764 | 0.773 | 0.449 | 0.541 | 0.523 | 0.536 | 0.57 | 0.494 | 0.521 | 0.532 | 0.426 | 0.413
NCI-H1793 | 0.496 | 0.585 | 0.388 | 0.453 | 0.435 | 0.667 | 0.457 | 0.393 | 0.334 | 0.58 | 0.351 | 0.318 | 0.299 | 0.351 | 0.273 | 0.338 | 0.295 | 0.442 | 0.265 | 0.214
NCI-H441 | 0.657 | 1.19 | 0.447 | 0.545 | 0.526 | 1.26 | 1.11 | 0.954 | 0.995 | 0.804 | 0.193 | 0.232 | 0.21 | 0.243 | 0.257 | 0.236 | 0.224 | 0.165 | 0.104 | 0.101
RERF-LC-KJ | 1.29 | 0.739 | 0.822 | 0.915 | 0.652 | 1.14 | – | 1.04 | 0.995 | 0.828 | 1.15 | 1.27 | 1.02 | 1.04 | 1.09 | 0.875 | 0.363 | 0.184 | 0.152 | 0.218
H3255 | 0.658 | 0.563 | 0.634 | 0.471 | 0.476 | 1.08 | 0.917 | 0.852 | 0.832 | 0.734 | 0.291 | 0.316 | 0.319 | 0.296 | 0.31 | 0.299 | 0.283 | 0.259 | 0.308 | 0.274
A-427 | 0.973 | 0.941 | 0.953 | 0.908 | 0.964 | 0.75 | 0.759 | 0.778 | 0.762 | 0.795 | 0.534 | 0.519 | 0.517 | 0.5 | 0.491 | 0.381 | 0.339 | 0.321 | 0.29 | 0.282
